Experimental data from the NIST ThermoML archive (doi:10.1016/j.jct.2015.02.020).

Key:
[1] = refractive index (Na D-line) (dimensionless); xn = mol fraction of the nth substance listed; settings: 101.3 kPa, Liquid, Standard Abbe refractometry
[2] = xn = mol fraction of the nth substance listed; settings: 101.3 kPa, Liquid; for viscosity: Falling or rolling sphere viscometry; for speed of sound: Sing-around technique in a fixed-path interferometer; for mass density: Vibrating tube method

CC[n+]1ccc(C)cc1.O=S(=O)([N-]S(=O)(=O)C(F)(F)F)C(F)(F)F + O
Settings	mass density, [2] [kg/m3]	refractive index, [1]	speed of sound, [2] [m/s]	viscosity, [2] [mPa·s]
298.15 K, x2 = 0.144	1479.48	1.44235	1266.8	24.89
298.15 K, x2 = 0.201	1476.6	1.44165	1268.3	22.72
298.15 K, x2 = 0.306	1469.91	1.44005	1271.7	19.35
303.15 K, x2 = 0.144	1474.53	1.44089	1255.4	21.05
303.15 K, x2 = 0.201	1471.63	1.44016	1256.8	19.29
303.15 K, x2 = 0.306	1464.89	1.43866	1260.3	16.23
308.15 K, x2 = 0.144	1469.61	1.4394	1244.1	18.04
308.15 K, x2 = 0.201	1466.68	1.43875	1245.5	16.53
308.15 K, x2 = 0.306	1459	1.43719	1249.2	13.95
313.15 K, x2 = 0.144	1464.69	1.43785	1232.9	15.53
313.15 K, x2 = 0.201	1461.75	1.43727	1234.3	14.31
313.15 K, x2 = 0.306	1454.92	1.4355	1238	12.19
318.15 K, x2 = 0.144	1459.79	1.43674	1221.8	13.59
318.15 K, x2 = 0.201	1456.83	1.4359	1223.2	12.58
318.15 K, x2 = 0.306	1449.95	1.4346	1226.8	10.74
323.15 K, x2 = 0.144	1454.91	1.43532	1210.9	12.03
323.15 K, x2 = 0.201	1451.92	1.43441	1212.2	11.15
323.15 K, x2 = 0.306	1444.99	1.43373	1215.7	9.52
328.15 K, x2 = 0.144	1450.05	1.43396	1200.1	10.7
328.15 K, x2 = 0.201	1447.04	1.43298	1201.3	9.939
328.15 K, x2 = 0.306	1440.05	1.4324	1204.7	8.473
333.15 K, x2 = 0.144	1445.21	1.43253	1189.4	9.576
333.15 K, x2 = 0.201	1442.18	1.43159	1190.6	8.902
333.15 K, x2 = 0.306	1435.13	1.43102	1193.9	7.583
338.15 K, x2 = 0.144	1440.39	1.43108	1178.7	8.598
338.15 K, x2 = 0.201	1437.33	1.43016	1179.9	7.999
338.15 K, x2 = 0.306	1430.22	1.42965	1183	6.83
343.15 K, x2 = 0.144	1435.58	1.42964	1168.2	7.76
343.15 K, x2 = 0.201	1432.49	1.42874	1169.3	7.221
343.15 K, x2 = 0.306	1425.33	1.42828	1172.2	–

CC[n+]1cccc(C)c1.O=S(=O)([N-]S(=O)(=O)C(F)(F)F)C(F)(F)F + O
Settings	mass density, [2] [kg/m3]	refractive index, [1]	speed of sound, [2] [m/s]	viscosity, [2] [mPa·s]
298.15 K, x2 = 0.131	1481.91	1.44197	1262.7	29.75
298.15 K, x2 = 0.189	1479.39	1.44144	1264.6	27.2
298.15 K, x2 = 0.266	1473.92	1.44013	1268.3	23.89
303.15 K, x2 = 0.131	1477.02	1.44057	1251.8	24.96
303.15 K, x2 = 0.189	1474.49	1.44005	1253.4	22.92
303.15 K, x2 = 0.266	1468.97	1.43917	1257.1	20.03
308.15 K, x2 = 0.131	1472.16	1.4391	1240.8	21.21
308.15 K, x2 = 0.189	1469.6	1.43852	1242.3	19.52
308.15 K, x2 = 0.266	1464.04	1.43769	1246	17.09
313.15 K, x2 = 0.131	1467.31	1.43766	1229.9	18.24
313.15 K, x2 = 0.189	1464.73	1.43716	1231.4	16.84
313.15 K, x2 = 0.266	1459.12	1.43624	1234.9	14.62
318.15 K, x2 = 0.131	1462.48	1.43623	1219.1	15.79
318.15 K, x2 = 0.189	1459.88	1.43573	1220.5	14.61
318.15 K, x2 = 0.266	1454.22	1.43533	1224	12.74
323.15 K, x2 = 0.131	1457.66	1.4348	1208.4	13.84
323.15 K, x2 = 0.189	1455.04	1.43425	1209.5	12.88
323.15 K, x2 = 0.266	1449.34	1.43385	1213.2	11.23
328.15 K, x2 = 0.131	1452.87	1.43338	1197.8	12.27
328.15 K, x2 = 0.189	1450.22	1.43281	1199.2	11.44
328.15 K, x2 = 0.266	1444.47	1.43261	1202.4	9.965
333.15 K, x2 = 0.131	1448.09	1.43195	1187.3	10.95
333.15 K, x2 = 0.189	1445.42	1.43142	1188.6	10.21
333.15 K, x2 = 0.266	1439.61	1.43119	1191.8	8.892
338.15 K, x2 = 0.131	1443.32	1.43052	1176.9	9.815
338.15 K, x2 = 0.189	1440.63	1.42999	1178.2	9.153
338.15 K, x2 = 0.266	1434.78	1.42974	1181.2	7.977
343.15 K, x2 = 0.131	1438.57	1.42911	1166.6	8.833
343.15 K, x2 = 0.189	1435.85	1.42853	1167.8	8.239
343.15 K, x2 = 0.266	1429.95	1.42835	1170.8	7.182

CC[n+]1ccccc1C.O=S(=O)([N-]S(=O)(=O)C(F)(F)F)C(F)(F)F + O
Settings	mass density, [2] [kg/m3]	refractive index, [1]	speed of sound, [2] [m/s]	viscosity, [2] [mPa·s]
298.15 K, x2 = 0.124	1498.88	1.44635	1301.6	54.52
298.15 K, x2 = 0.172	1496.43	1.44579	1302.6	48.93
298.15 K, x2 = 0.256	1490.94	1.44479	1304.6	40.5
303.15 K, x2 = 0.124	1493.99	1.44489	1290.2	44.3
303.15 K, x2 = 0.172	1491.53	1.44442	1291.2	39.95
303.15 K, x2 = 0.256	1485.99	1.44323	1293.2	32.89
308.15 K, x2 = 0.124	1489.12	1.44343	1279	36.58
308.15 K, x2 = 0.172	1486.64	1.44289	1279.9	33.11
308.15 K, x2 = 0.256	1481.06	1.44178	1282.2	27.38
313.15 K, x2 = 0.124	1484.26	1.44195	1267.9	30.63
313.15 K, x2 = 0.172	1481.77	1.44136	1268.8	27.84
313.15 K, x2 = 0.256	1476.14	1.44044	1271	23.19
318.15 K, x2 = 0.124	1479.43	1.4405	1256.9	25.97
318.15 K, x2 = 0.172	1476.91	1.43988	1257.8	23.68
318.15 K, x2 = 0.256	1471.25	1.43914	1259.9	19.85
323.15 K, x2 = 0.124	1474.61	1.43906	1246	22.27
323.15 K, x2 = 0.172	1472.08	1.43853	1246.8	20.38
323.15 K, x2 = 0.256	1466.37	1.43787	1248.8	17.19
328.15 K, x2 = 0.124	1469.81	1.43777	1235.3	19.27
328.15 K, x2 = 0.172	1467.26	1.4372	1236	17.72
328.15 K, x2 = 0.256	1461.5	1.43662	1237.9	14.95
333.15 K, x2 = 0.124	1465.03	1.43633	1224.6	16.83
333.15 K, x2 = 0.172	1462.46	1.43586	1225.3	15.44
333.15 K, x2 = 0.256	1456.65	1.43532	1227.1	13.17
338.15 K, x2 = 0.124	1460.28	1.43494	1214	14.77
338.15 K, x2 = 0.172	1457.68	1.43447	1214.6	13.67
338.15 K, x2 = 0.256	1451.82	1.43398	1216.3	11.71
343.15 K, x2 = 0.124	1455.53	1.43355	1203.5	13.13
343.15 K, x2 = 0.172	1452.91	1.43315	1204.1	12.18
343.15 K, x2 = 0.256	1447.01	1.43279	1205.6	10.47
